For orientation: IC50 means the concentration that inhibits the measured activity by half.

Bounds are passed on as bounds.

From PMC3744471, “Mitochondria Are the Target Organelle of Differentiation-Inducing Factor-3, an Anti-Tumor Agent Isolated from Dictyostelium Discoideum” (PLoS ONE, 2013) come the findings set out here.

In one assay the test system is HeLa cells. The experiment in a line: Cell growth assay (Alamar blue), HeLa. It counts as cell-based, human. The settings on record: 3 days; for Effect on cell growth (relative cell number): HeLa; for IC50: Homo sapiens, 72 h, HeLa cells, Alamar blue. How it is done:
HeLa, LM8, and 3T3-L1 cells were cultured for 3 days at 2.5–5×10^3 cells/well in 12-well plates with each well filled with 1 ml of DMEM-FBS (for HeLa and 3T3-L1) or MEM-α-FBS (for LM8) together with drugs at various concentrations. Then, the incubation media were discarded and the cells were washed with 1 ml of PBS(–) (20 mM phosphate buffered saline, pH 7.4) and incubated with 1 ml of fresh DMEM-FBS (HeLa and 3T3-L1) or MEM-α-FBS (LM8) containing 5% (v/v) of Alamar blue (a cell number indicator; Wako Pure Chemical Industries, Osaka, Japan) until the color changed. […] Relative cell numbers were determined for each concentration for each drug and the IC50 was determined from the dose-response curves.
On the technique in general: Alamar Blue is a resazurin reagent that responds to reducing activity.

Another assay concerns LM8 cells. The experiment in a line: Cell growth assay (Alamar blue), LM8. To be noted: for Effect on cell growth in LM8 cells: BODIPY-DIF-3 5–20 µM, CCCP 2–10 µM, 4 days; for IC50: Mus musculus, 72 h, LM8 cells, 3 days, Alamar blue. It is filed as cell-based, mouse. How it is done:
(§1) HeLa, LM8, and 3T3-L1 cells were cultured for 3 days at 2.5–5×10^3 cells/well in 12-well plates with each well filled with 1 ml of DMEM-FBS (for HeLa and 3T3-L1) or MEM-α-FBS (for LM8) together with drugs at various concentrations. Then, the incubation media were discarded and the cells were washed with 1 ml of PBS(–) (20 mM phosphate buffered saline, pH 7.4) and incubated with 1 ml of fresh DMEM-FBS (HeLa and 3T3-L1) or MEM-α-FBS (LM8) containing 5% (v/v) of Alamar blue (a cell number indicator; Wako Pure Chemical Industries, Osaka, Japan) until the color changed. The relative cell number was assessed by measuring absorbance at 570 nm (reference at 595 nm) as described previously, [14]; DIF-related compounds and BODIPY-conjugated compounds hardly disturbed the cell number assessment with Alamar blue (data not shown), probably because the additive compounds were washed out when cell number was assessed. For determination of the 50% inhibitory concentration (IC50) of each drug, the cells were cultured for 3 days in the presence of each drug at various concentrations. Relative cell numbers were determined for each concentration for each drug and the IC50 was determined from the dose-response curves.
(§2) Supplementary file pone.0072118.s001.tif: Figure S1 Effects of BODIPY-DIF-3 and CCCP on cell growth, and cellular localization of BODIPY-DIF-3 in LM8 cells. (A) Cells were incubated for 4 days with 5–20 µM of BODIPY-DIF-3 (closed circles) or 2–10 µM of CCCP (closed triangles), and relative cell number was assessed by the use of Alamar blue. Data are the mean values and SD (bars) of three independent experiments. (B) Cells were incubated for 0.5 h or 3 days with 20 µM of BODIPY-DIF-3, washed free of the additive, and observed microscopically. (C) Cells were incubated for 0.5 h with BODIPY-DIF-3 (20 µM), Hoechst (0.1 µg/ml), and MitoTracker (0.1 µM), washed free of the additives, and observed by using a high-magnification fluorescence microscope. (D) Cells were incubated for 3 days with BODIPY-DIF-3 (20 µM) and then for 0.5 h with Hoechst (0.1 µg/ml) and MitoTracker (0.1 µM). Cells were washed free of the additives and observed by using a high-magnification fluorescence microscope. (TIF) Click here for additional data file.

A further assay concerns 3T3-L1 cells. Kind of assay: Cell growth assay (Alamar blue), 3T3-L1. It is filed as cell-based, mouse. To be noted: for Effect on cell growth in 3T3-L1 cells: BODIPY-DIF-3 5–20 µM, CCCP 2–10 µM, 4 days; for IC50: Mus musculus, 72 h, 3T3-L1 cells, 3 days, Alamar blue. How it is done:
as §1
as §2, with “pone.0072118.s002.tif:” for “pone.0072118.s001.tif:”, “S2” for “S1”, “3T3-L1” for “LM8”

The subject of assay [1] is cyclin D1 and cyclin D3 in HeLa cells. Kind of assay: Western blotting of cyclin D expression. To be noted: 20 h, DIF-3 20 µM, Bu-DIF-3 5–7.5 µM, BODIPY-DIF-3 20 µM, CCCP 10 µM, azide 0.01%. It is filed as cell-based, human. How it is done:
HeLa cells were incubated for 20 h with 1 ml of DMEM-FBS containing the indicated additives in 12-well plates (2–4×10^5 cells/well), washed twice with PBS(–), harvested by adding 100–200 µl of an SDS-sample buffer solution (in proportion to cell density: relative cell number), sonicated (heated), and used for SDS-PAGE. Western blot transfer and immunoblotting were performed as described previously, by using a primary antibody for cyclin D1, cyclin D2, cyclin D3, or GAPDH, and a second antibody, an alkaline phosphatase-conjugated anti-mouse or anti-rabbit IgG antibody. […] Visualized protein bands were then digitized and quantified by using Adobe Photoshop CS4 (version 11.0) (Adobe, San Jose, CA, USA) and ImageJ Software (version 1.4) (http://rsb.info.nih.gov/ij/).
A general note: Immunoblotting shows a protein as a band on a membrane.

On to `CCCCCC(=O)c1c(O)cc(OCCCCNC(=O)CCC2=[N+]3C(=Cc4c(C)cc(C)n4[B-]3(F)F)C=C2)c(Cl)c1O` [BODIPY-DIF-3], for which the “Effect on cell growth (relative cell number)” value in the assay on HeLa cells (5–20 µM (Bu-BODIPY up to 20 µM)) is given as “suppressed in a dose-dependent manner”. The same compound registered an IC50 with HeLa cells of 13.2 µM. Also, in the assay with LM8 cells, the “Effect on cell growth in LM8 cells” value was “dose-dependently suppressed cell growth” and the half-maximal inhibitory concentration (IC50) was 12.2 µM. For the same compound, in the assay on 3T3-L1 cells, the “Effect on cell growth in 3T3-L1 cells” value was “dose-dependently suppressed cell growth” and the half-inhibitory concentration (IC50) worked out at 20 µM. Further, in assay [1], the “Expression of cyclin D1” value is “significantly decreased” and the “Expression of cyclin D3” value was “significantly decreased”.
`CCCCCC(=O)c1c(O)cc(OCCCC)c(Cl)c1O` [Bu-DIF-3, 1-(3-chloro-2,6-dihydroxy-4-butoxyphenyl)hexan-1-one]: the “Effect on cell growth (relative cell number)” value with HeLa cells (20 µM) is given as “significantly suppressed”. Moreover, the IC50 amounted to 3.2 µM with HeLa cells, 2 µM in the assay with LM8 cells and 4.3 µM in the assay with 3T3-L1 cells. In addition, the “Expression of cyclin D1” value in assay [1] is listed as “significantly decreased”. The “Expression of cyclin D3” value in assay [1] is “significantly decreased”.
For `N#CC(C#N)=NNc1cccc(Cl)c1` [CCCP, carbonyl cyanide m-chlorophenylhydrazone, reference compound], the “Effect on cell growth (relative cell number)” value in the assay on HeLa cells (CCCP 10 µM, azide 0.01%) was “significantly suppressed”. The IC50 with HeLa cells was 5.2 µM. In the assay with LM8 cells, the “Effect on cell growth in LM8 cells” value is “dose-dependently suppressed cell growth” and 6.8 µM corresponded to half-maximal inhibition (IC50). Further, in the assay with 3T3-L1 cells, the “Effect on cell growth in 3T3-L1 cells” value is “dose-dependently suppressed cell growth” and the half-inhibitory concentration (IC50) was found to be 7.5 µM. In addition, in assay [1], the “Expression of cyclin D1” value was “significantly suppressed” and the “Expression of cyclin D3” value is recorded as “significantly suppressed”.
As to `CCCCCC(=O)c1c(O)cc(OC)c(Cl)c1O` [DIF-3, 1-(3-chloro-2,6-dihydroxy-4-methoxyphenyl)hexan-1-one], the “Effect on cell growth (relative cell number)” value with HeLa cells (20 µM) is “significantly suppressed”. Besides, the figures for the IC50 in the assay with HeLa cells, in the assay on LM8 cells and in the assay on 3T3-L1 cells were 14.5 µM, 15.5 µM and greater than 20 µM, respectively. The “Expression of cyclin D1” value in assay [1] was “significantly decreased”. The “Expression of cyclin D3” value in assay [1] is “significantly decreased”.
